One series has as its system Legionella ssp. The class given is cell-based.
The test system of another series is Escherichia coli. As to the kind of experiment: germicidal testing at 0.4 ppm chlorine (Comparative Example 2). The class given is cell-based. The note with it: concentration of 0.4 ppm.
In a further series the test system is Staphylococcus aureus. The series is described as above. In kind it is cell-based. Particulars: concentration of 0.4 ppm.
A short description of series [1]: time course of residual chlorine concentration in 42° C. hot water. Particulars: chlorine level 0.4 ppm at start.

Structures are written as SMILES.

For the molecule `OCl` [Sodium hypochlorite], the germicidal activity result with Legionella ssp., with Escherichia coli and with Staphylococcus aureus was “no germicidal activity” each time. The “residual concentration in the water (chlorine)” value in series [1] (after 30 minutes) is on record as 0.3 ppm; in series [1] (after 60 minutes), 0.2 ppm; in series [1] (at 90 minutes) it was 0 ppm.

Source of the values: patent US20070065519A1, “Copper ion-producing composition” (priority 2005, published 2007).
